{
  "source": "patent US10016515B2",
  "about": "“DMA, a bis-benzimidazole, confers radioprotection to the intestine via Akt/NFκB dual pathway activation” (Jawaharlal Nehru University, priority 2016, dated 2018)",
  "key": {"[1]": {"system": "Balb/c mice", "format": "in vivo", "procedure": "Balb/c mice with or without DMA treatment were placed in a specially designed, well-ventilated acrylic container and subjected to whole-body irradiation at 5, 6, 8, 9 or 10 Gray (Gy) in a single fraction.\nThe mice were grouped as follows: Group 1, Sham control (normal saline treated); Group 2, radiation control (whole body exposure to 8 Gy); Group 3, treated with increasing doses (100, 150, 200, 450 and 600 mg/kg bw) of DMA 2 h prior to whole body exposure to 8 Gy and Group 4 treated with similar DMA doses only. Survival study was carried out for a period of 30 days and animals were routinely monitored for their body weight, food and water intake, radiation sickness symptoms and mortality to fix the highest effective dose of DMA against radiation induced toxicity.\nMice were treated with DMA (200 mg/kg bw) prior to whole body exposure to 5, 6, 8, 9 & 10 Gy. DRF was calculated ratio of LD50/30 mice treated with both DMA and radiation to the LD50/30 of mice treated with saline and radiation. Similarly survival with different route of administration of DMA was studied at 8 and 9 Gy TBI."}, "[2]": {"system": "Akt/NFκB pathway in HEK293, MRC5 and A549 cell lines", "assay": "Immunoblot analysis in cell lines", "format": "cell-based, human", "procedure": "HEK293, MRC5 and A549 cells were treated as indicated earlier. The cell pellet was resuspended in RIPA buffer and allowed to swell on ice for 30 min. Balb/c intestine tissue and tumor tissues were homogenized in RIPA buffer. Protein concentration was determined using Bradford's Assay (Bangalore Genei). Western blot was performed using standard protocols with primary antibodies against Akt, pAkt (Ser-473), […], mTOR, p70, Bad, PTEN, IKKα/β, p IKKα/β, p53, Bcl2, GAPDH, and NFκB (p65) (Cell Signalling) and horseradish peroxidase-conjugated mouse or rabbit secondary antibody (Abcam). Signals were detected using enhanced chemiluminescence (ECL system, Pierce) on X-ray film.\nCells after treatment were collected by trypsinization and washed twice with ice-cold PBS. Cell pellet was resuspended in five volumes of cytoplasmic extraction buffer (CEB) [10 mM HEPES pH 7.9, 10 mM KCl, 0.1 mM EDTA, 0.3% NP-40 and 1× protease inhibitor cocktail] to the size of cell pellet for 5 min. Protein solution was centrifuged at 3000 rpm for 5 min at 4° C. and supernatant was harvested as cytoplasmic extract.\nThe cell pellet obtained after extraction of cytoplasmic proteins was resuspended again in CEB without NP-40. It was centrifuged at 3000 rpm for 5 min at 4° C. and supernatant was discarded. Equal volume of nuclear extraction buffer (NEB) [20 mM HEPES pH7.9, 0.4M NaCl, 1 mM EDTA, 25% Glycerol, and 1× protease inhibitor cocktail] was added to nuclear pellet and incubated on ice for 10 min. Supernatant was harvested as nuclear protein extract."}, "[3]": {"system": "HEK293 cells", "assay": "Clonogenicity assay with Akt depleted cells", "format": "cell-based, human", "conditions": "5Gy", "procedure": "HEK 293 cells were transfected with Akt siRNA and control-siRNA (Santa Cruz Biotechnology Inc.) according to the manufacturer's instructions. Semi-quantitative RT-PCR was performed with primers specific for Akt and ACTB in control siRNA and Akt siRNA treated HEK cells for analysing knockdown of Akt […] gene expression.\nExponentially growing HEK cells post siRNA (siRNA-Akt and control siRNA transfections) were treated with 50 μM DMA for 1 h and irradiated with 0, 1, 2, 5 and 8 Gy of radiation dose at RT. Cells were seeded into 60 mm dishes in triplicate, at various densities and cells were stained with crystal violet to count colonies. Same experiment was done with control siRNA-transfected HEK cells. Percentage radioprotection was calculated by following formula % of Protection in radiation treated cells=(Survival fraction in siRNA+DMA treated cells/Survival fraction in only siRNA treated cells/)×100."}, "[4]": {"system": "HEK293 cells", "assay": "Cytotoxicity by MTT assay", "format": "cell-based, human", "procedure": "(§1) Exponentially growing HEK293, MRC5 and A549 cells were plated at cell densities 3000 cells per well in 96-well tissue culture plates. […] Cytotoxicity was measured by MTT assay according to the manufacturer's instructions (Promega, Madison, Wis., USA)."}, "[5]": {"assay": "Cytotoxicity by MTT assay", "format": "cell-based, human", "conditions": "human", "procedure": "as §1"}, "[6]": {"system": "A549 cells", "assay": "Cytotoxicity by MTT assay", "format": "cell-based, human", "procedure": "as §1"}, "[7]": {"system": "MRC5 cells", "assay": "Cytotoxicity by MTT assay", "format": "cell-based, human", "procedure": "as §1"}, "[8]": {"system": "Balb/c intestinal cells", "assay": "Cell proliferation by BrdU labeling, flow cytometry", "format": "in vivo, mouse", "procedure": "S phase cells were labeled in vivo by administering BrdU (i.p., 100 mg/kg) to each mouse 2 h before euthanasia. Mice were euthanized 3 days after irradiation and small intestine was rapidly dissected, chopped into homogeneous solution by straining with 70μ strainer and fixed in 70% ethanol. Cells stained with 0.5 mL of RNase (2 mg/mL) and 0.5 mL of propidium iodide (0.1% in 0.6% Triton X-100 in PBS) for 30 min in dark. Samples were then analysed on a FACS Calibur flow-cytometer (Becton Dickinson)."}, "[9]": {"system": "melanoma bearing Balb/c mice", "conditions": "300 mg/kg oral (Nimesh et al. 2015); cited from earlier work"}, "[10]": {"conditions": "DMA+Radiation, all three cell lines"}},
  "note": "Where two headings read alike, the source gives them in different places.",
  "data": [
    {"compound": "COc1ccc(-c2nc3cc(-c4nc5cc(N6CCN(C)CC6)ccc5[nH]4)ccc3[nH]2)cc1OC", "note": "[DMA, 5-(4-methylpiperazin-1-yl)-2-[2′-(3,4-dimethoxyphenyl)-5′-benzimidazolyl]benzimidazole]", "values": [
      {"measurement": "Survival / radioprotection", "setting": "[1]; 50 mg/kg i.v. 2 h prior to 8Gy TBI", "result": 100, "unit": "%"},
      {"measurement": "Survival", "setting": "[1]; 50 mg/kg i.v., 9Gy TBI", "result": 50, "unit": "%"},
      {"measurement": "Radioprotection", "setting": "[1]; 50 mg/kg s.c. 3 h prior to 8Gy TBI", "result": 20, "unit": "%"},
      {"measurement": "30-days survival rate", "setting": "[1]; 100 mg/kg oral before 8Gy TBI", "result": 54, "unit": "%"},
      {"measurement": "Survival", "setting": "[1]; 125 mg/kg i.p. 2 h before 8Gy", "result": 55, "unit": "%"},
      {"measurement": "30-days survival rate", "setting": "[1]; 150 mg/kg oral before 8Gy TBI", "result": 70, "unit": "%"},
      {"measurement": "30-days survival rate", "setting": "[1]; 200 mg/kg oral before 8Gy TBI (dose finding, FIG. 4C)", "result": 80, "unit": "%"},
      {"measurement": "30-day survival rate", "setting": "[1]; 200 mg/kg oral, 5Gy TBI", "result": 100, "unit": "%"},
      {"measurement": "30-day survival rate", "setting": "[1]; 200 mg/kg oral, 6Gy TBI", "result": 100, "unit": "%"},
      {"measurement": "30-day survival rate", "setting": "[1]; 200 mg/kg oral, 8Gy TBI (FIG. 4D)", "result": 82, "unit": "%"},
      {"measurement": "30-day survival rate", "setting": "[1]; 200 mg/kg oral, 9Gy TBI", "result": 18, "unit": "%"},
      {"measurement": "30-day survival rate", "setting": "[1]; 200 mg/kg oral, 10Gy TBI", "result": 12, "unit": "%"},
      {"measurement": "Dose reduction factor (DRF)", "setting": "[1]; 200 mg/kg oral, ratio of LD50/30, Balb/c mice", "result": 1.28},
      {"measurement": "Effect of DMA by itself on rodents", "setting": "[1]; DMA only", "result": "no effect"},
      {"measurement": "Body weight after TBI", "setting": "[1]; DMA pre-treated mice, after initial 9 days of radiation", "result": "considerable weight regain"},
      {"measurement": "NFκB p65 level", "setting": "[2]; DMA+Radiation vs control and irradiated", "result": "increased level"},
      {"measurement": "Level of phosphorylated Akt (Ser-473)", "setting": "[2]; DMA+Radiation, HEK293, MRC5 and A549", "result": "increased"},
      {"measurement": "IκBα protein level", "setting": "[2]; [10]", "result": "decrease"},
      {"measurement": "Phosphorylation of IKKα and IKKβ", "setting": "[2]; [10]", "result": "higher"},
      {"measurement": "NFκB p65 in cytoplasm and nucleus", "setting": "[2]; HEK293 cytoplasmic and nuclear extract, DMA prior to radiation", "result": "higher expression"},
      {"measurement": "PTEN, mTOR and p70 levels", "setting": "[2]; all three cell lines", "result": "could not address any significant changes"},
      {"measurement": "Phosphorylated GSK3β", "setting": "[2]; prior DMA treatment to radiation, all three cell lines", "result": "increase"},
      {"measurement": "% radioprotection (clonogenicity)", "setting": "[3]; Akt siRNA treated cells", "result": 7.5, "unit": "%"},
      {"measurement": "% radioprotection (clonogenicity)", "setting": "[3]; control siRNA treated cells", "result": 40.6, "unit": "%"},
      {"measurement": "Concentration at which DMA was cytotoxic", "setting": "[4]; HEK293", "result": 50, "unit": "µM"},
      {"measurement": "IC50 at short term incubation", "setting": "[4]; HEK293, 50 μM DMA, 2 h", "result": "no observable IC50"},
      {"measurement": "IC50 at short term treatment", "setting": "[4]; HEK293, DMA for 2 h", "result": "no observable IC50"},
      {"measurement": "IC50", "setting": "[5]; A549 cells, A549, 1-100 μM, up to 72 h", "result": "> 100", "unit": "µM"},
      {"measurement": "IC50 at 24 h", "setting": "[5]; MRC5 cells, MRC-5 cells, 24 h", "result": 92.5, "unit": "µM"},
      {"measurement": "IC50 at short term incubation", "setting": "[6]; A549, 50 μM DMA, 2 h", "result": "no observable IC50"},
      {"measurement": "IC50 (cytotoxicity)", "setting": "[6]; A549, 1-100 μM, up to 72 h", "result": "could not be achieved"},
      {"measurement": "IC50 at short term treatment", "setting": "[6]; A549, DMA at 509 μM for 2 h", "result": "no observable IC50"},
      {"measurement": "IC50 at short term incubation", "setting": "[7]; MRC5, 50 μM DMA, 2 h", "result": "no observable IC50"},
      {"measurement": "IC50 at short term treatment", "setting": "[7]; MRC5, DMA at 509 μM for 2 h", "result": "no observable IC50"},
      {"measurement": "Active S-phase cells in intestine", "setting": "[8]; 50 mg/kg i.v. pretreatment, 8Gy TBI", "result": 11, "unit": "%"},
      {"measurement": "Cell proliferation in intestine tissue", "setting": "[8]; DMA treated vs control", "result": "same"},
      {"measurement": "Protection of tumor tissues", "setting": "[9]", "result": "no protection to tumor tissues"}
    ]}
  ]
}
